Values joined by “and” are separate entries in the source; they are usually repeats but may differ in a detail not shown here. Identical values can stand only once. Like-named read-outs stand apart in the source and are kept apart here.
Key:
patients = settings: cited from earlier work
[1] = test system: CPT-11-induced diarrhea in mice; settings: CPT-11 50 mg/kg i.p. without inhibitor

CCc1c2c(nc3ccc(OC(=O)N4CCC(N5CCCCC5)CC4)cc13)-c1cc3c(c(=O)n1C2)COC(=O)[C@]3(O)CC [CPT-11, Irinotecan]
patients showing grade 3–4 diarrhea (patients; human, in vivo): 31% | patients experiencing diarrhea (patients; ref Food and Drug Administration package insert for irinotecan): up to 88% | mice with bloody diarrhea ([1]; day 8, 50 mg/kg): ~ 25% and 25% | mice with bloody diarrhea ([1]; day 9, 50 mg/kg): ~ 60% and 60% | mice with bloody diarrhea ([1]; day 10): 100%
